Assay [1] deals with T1, HiBit-BRG1 fusion protein (Homo sapiens, UniProt P51532).
T1 construct: expressed in transfected cells
Nature of the assay: HiBiT-BRG1 cell-based degradation assay (Nano-Glo HiBiT Lytic Detection, 24 h). The note with it: stable HeLa cell line expressing HiBit-BRG1 and LgBit, top dose 30 μM, read-out: BRG1 HiBit Degradation Maximum (%). The method, boiled down: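 HeLa cells stably expressing HiBiT-BRG1 plus LgBiT were treated with 10-point 3-fold compound dilutions (top 30 μM final) for 24 h. Lytic Nano-Glo HiBiT luminescence was read. % degradation was normalised between DMSO (high control) and 2 μM of a reference BRM/BRG1 degrader (low control).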
For orientation: The HiBiT peptide binds its large partner to form an active luciferase.

The target in the next assay is T2, HiBit-BRM fusion protein (Homo sapiens, UniProt P51531).
T2 construct: expressed in transfected cells
T2 sequence (P51531 whole entry, the tested form may be a part): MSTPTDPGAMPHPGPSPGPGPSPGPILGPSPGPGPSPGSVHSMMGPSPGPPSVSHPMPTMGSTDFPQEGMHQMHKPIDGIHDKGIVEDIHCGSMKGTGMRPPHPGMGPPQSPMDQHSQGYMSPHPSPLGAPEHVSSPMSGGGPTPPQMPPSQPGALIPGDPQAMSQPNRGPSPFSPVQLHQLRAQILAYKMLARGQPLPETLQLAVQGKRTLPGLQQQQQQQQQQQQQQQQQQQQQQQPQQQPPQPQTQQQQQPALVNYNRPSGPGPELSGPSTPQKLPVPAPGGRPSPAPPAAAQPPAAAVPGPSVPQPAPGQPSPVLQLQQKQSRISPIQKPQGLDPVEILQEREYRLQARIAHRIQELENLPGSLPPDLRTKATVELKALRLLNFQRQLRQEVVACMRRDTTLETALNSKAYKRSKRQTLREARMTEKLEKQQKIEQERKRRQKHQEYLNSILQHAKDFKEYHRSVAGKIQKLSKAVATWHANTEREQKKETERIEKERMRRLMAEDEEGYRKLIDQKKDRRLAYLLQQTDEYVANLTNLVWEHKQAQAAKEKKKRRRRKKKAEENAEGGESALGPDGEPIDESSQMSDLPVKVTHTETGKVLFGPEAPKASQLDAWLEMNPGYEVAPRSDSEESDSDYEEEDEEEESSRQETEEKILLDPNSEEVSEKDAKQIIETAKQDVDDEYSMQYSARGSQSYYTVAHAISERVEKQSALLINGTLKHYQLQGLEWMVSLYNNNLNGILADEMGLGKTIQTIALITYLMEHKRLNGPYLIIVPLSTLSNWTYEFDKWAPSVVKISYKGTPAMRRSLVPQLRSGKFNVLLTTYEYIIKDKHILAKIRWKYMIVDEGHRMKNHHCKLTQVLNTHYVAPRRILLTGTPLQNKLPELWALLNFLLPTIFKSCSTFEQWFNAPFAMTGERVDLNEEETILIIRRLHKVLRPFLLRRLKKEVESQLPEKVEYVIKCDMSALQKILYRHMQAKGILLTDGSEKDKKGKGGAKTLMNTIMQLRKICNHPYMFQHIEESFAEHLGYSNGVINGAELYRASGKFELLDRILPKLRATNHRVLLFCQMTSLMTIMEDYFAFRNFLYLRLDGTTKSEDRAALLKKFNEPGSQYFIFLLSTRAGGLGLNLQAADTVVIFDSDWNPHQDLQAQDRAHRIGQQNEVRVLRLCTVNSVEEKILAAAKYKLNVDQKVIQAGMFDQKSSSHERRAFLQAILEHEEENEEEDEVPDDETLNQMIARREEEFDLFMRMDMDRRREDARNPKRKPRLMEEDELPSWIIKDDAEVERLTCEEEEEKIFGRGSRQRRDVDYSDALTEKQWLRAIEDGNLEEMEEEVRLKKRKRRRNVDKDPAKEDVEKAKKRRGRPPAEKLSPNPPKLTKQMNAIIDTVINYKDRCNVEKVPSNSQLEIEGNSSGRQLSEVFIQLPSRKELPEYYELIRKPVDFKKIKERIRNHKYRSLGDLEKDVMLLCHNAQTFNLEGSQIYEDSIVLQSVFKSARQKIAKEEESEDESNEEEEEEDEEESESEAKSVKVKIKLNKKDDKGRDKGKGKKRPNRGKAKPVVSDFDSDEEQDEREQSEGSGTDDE
Nature of the assay: HiBiT-BRM cell-based degradation assay (Nano-Glo HiBiT Lytic Detection, 24 h). The note with it: stable HeLa cell line expressing HiBiT-BRM, top dose 30 μM. The method, boiled down: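 Stable HiBiT-BRM HeLa cells treated 24 h with 10-point 3-fold dilutions, top final dose 30 μM, in duplicate. Luminescence read after lytic LgBiT reagent. Percent degradation was normalised to DMSO (high control) and 2 μM reference BRM/BRG1 degrader (low control).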

T1 sequence (P51532 whole entry, the tested form may be a part): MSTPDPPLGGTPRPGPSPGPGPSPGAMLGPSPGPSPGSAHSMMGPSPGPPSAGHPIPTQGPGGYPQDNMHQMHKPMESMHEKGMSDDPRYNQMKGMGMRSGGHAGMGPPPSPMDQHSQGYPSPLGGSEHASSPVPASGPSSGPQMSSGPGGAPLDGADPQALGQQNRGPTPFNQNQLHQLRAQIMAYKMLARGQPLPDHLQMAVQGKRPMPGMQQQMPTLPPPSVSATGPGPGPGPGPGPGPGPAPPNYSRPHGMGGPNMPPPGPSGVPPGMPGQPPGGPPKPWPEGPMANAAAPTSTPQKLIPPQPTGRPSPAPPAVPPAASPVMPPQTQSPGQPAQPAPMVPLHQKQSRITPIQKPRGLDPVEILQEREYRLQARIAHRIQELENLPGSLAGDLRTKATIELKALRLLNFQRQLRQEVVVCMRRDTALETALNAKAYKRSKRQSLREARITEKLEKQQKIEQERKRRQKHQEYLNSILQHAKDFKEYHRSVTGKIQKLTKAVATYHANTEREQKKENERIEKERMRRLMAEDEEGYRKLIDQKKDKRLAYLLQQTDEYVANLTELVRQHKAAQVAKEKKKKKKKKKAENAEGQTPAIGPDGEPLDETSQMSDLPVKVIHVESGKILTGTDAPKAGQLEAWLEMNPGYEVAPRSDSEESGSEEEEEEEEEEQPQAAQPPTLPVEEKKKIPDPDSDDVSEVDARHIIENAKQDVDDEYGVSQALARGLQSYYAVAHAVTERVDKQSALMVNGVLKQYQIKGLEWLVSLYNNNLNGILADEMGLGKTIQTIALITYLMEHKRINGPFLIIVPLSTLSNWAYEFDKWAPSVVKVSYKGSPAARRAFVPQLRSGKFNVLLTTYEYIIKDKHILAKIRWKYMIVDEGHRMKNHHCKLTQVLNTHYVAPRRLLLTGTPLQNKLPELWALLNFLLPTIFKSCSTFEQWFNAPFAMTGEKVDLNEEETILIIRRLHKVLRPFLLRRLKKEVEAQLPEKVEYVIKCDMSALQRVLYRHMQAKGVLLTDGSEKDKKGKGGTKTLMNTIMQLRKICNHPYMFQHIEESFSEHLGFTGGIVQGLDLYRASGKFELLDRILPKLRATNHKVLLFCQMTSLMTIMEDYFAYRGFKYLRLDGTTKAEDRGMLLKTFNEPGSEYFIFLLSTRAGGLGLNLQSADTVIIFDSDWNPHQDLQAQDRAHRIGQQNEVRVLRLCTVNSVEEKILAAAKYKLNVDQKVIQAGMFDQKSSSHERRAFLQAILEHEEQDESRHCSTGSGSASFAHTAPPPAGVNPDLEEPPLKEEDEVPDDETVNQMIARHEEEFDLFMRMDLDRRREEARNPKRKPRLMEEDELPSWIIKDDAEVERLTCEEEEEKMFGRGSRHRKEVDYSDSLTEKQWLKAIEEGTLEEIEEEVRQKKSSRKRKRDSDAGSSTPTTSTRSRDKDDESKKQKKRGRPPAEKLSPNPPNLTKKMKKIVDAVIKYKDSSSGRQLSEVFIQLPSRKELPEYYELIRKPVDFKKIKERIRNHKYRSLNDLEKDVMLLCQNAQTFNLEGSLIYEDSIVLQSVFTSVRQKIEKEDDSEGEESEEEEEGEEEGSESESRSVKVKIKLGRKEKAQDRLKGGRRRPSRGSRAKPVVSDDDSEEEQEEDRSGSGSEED

`Nc1nnc(-c2ccccc2O)cc1OCC12CC(C(=O)N3CC(COc4cccc5c4C(=O)N(C4CCC(=O)NC4=O)C5=O)C3)(C1)C2` (stereo not drawn) [Compound 87, 4-((1-(3-(((3-amino-6-(2-hydroxyphenyl)pyridazin-4-yl)oxy)methyl)bicyclo[1.1.1]pentane-1-carbonyl)azetidin-3-yl)methoxy)-2-(2,6-dioxopiperidin-3-yl)isoindoline-1,3-dione]: in assay [1], the Dmax is less than 50%. Besides, on HiBit-BRM fusion protein, the “BRM HiBit Degradation Maximum (%)” value is “C (“C” indicates maximum degradation < 50%)”.

With `CN(CCNC(=O)C12CC(COc3cc(-c4ccccc4O)nnc3N)(C1)C2)CCNc1cccc2c1C(=O)N(C1CCC(=O)NC1=O)C2=O` (stereo not drawn) [Compound 77, 3-(((3-amino-6-(2-hydroxyphenyl)pyridazin-4-yl)oxy)methyl)-N-(2-((2-((2-(2,6-dioxopiperidin-3-yl)-1,3-dioxoisoindolin-4-yl)amino)ethyl)(methyl)amino)ethyl)bicyclo[1.1.1]pentane-1-carboxamide], the Dmax in assay [1] was less than 50%. For the same compound, the “BRM HiBit Degradation Maximum (%)” value on HiBit-BRM fusion protein is reported as “C (“C” indicates maximum degradation < 50%)”.

Turning to `Nc1nnc(-c2ccccc2O)cc1OCC12CC(C(=O)NC3CCN(CCOc4ccc5c(c4)C(=O)N(C4CCC(=O)NC4=O)C5=O)CC3)(C1)C2` (stereo not drawn) [Compound 80, 3-(((3-amino-6-(2-hydroxyphenyl)pyridazin-4-yl)oxy)methyl)-N-(1-(2-((2-(2,6-dioxopiperidin-3-yl)-1,3-dioxoisoindolin-5-yl)oxy)ethyl)piperidin-4-yl)bicyclo[1.1.1]pentane-1-carboxamide], in assay [1], the Dmax was less than 50%. In addition, at HiBit-BRM fusion protein, the “BRM HiBit Degradation Maximum (%)” value is “C (“C” indicates maximum degradation < 50%)”.

On to `Nc1nnc(-c2ccccc2O)cc1OCC12CC(C(=O)NCCOCCOCCNc3cccc4c3CN(C3CCC(=O)NC3=O)C4=O)(C1)C2` (stereo not drawn) [Compound 60, 3-(((3-amino-6-(2-hydroxyphenyl)pyridazin-4-yl)oxy)methyl)-N-(2-(2-(2-((2-(2,6-dioxopiperidin-3-yl)-1-oxoisoindolin-4-yl)amino)ethoxy)ethoxy)ethyl)bicyclo[1.1.1]pentane-1-carboxamide], for which the Dmax in assay [1] was less than 50%. In addition, the “BRM HiBit Degradation Maximum (%)” value at HiBit-BRM fusion protein is “C (“C” indicates maximum degradation < 50%)”.

Regarding `Nc1nnc(-c2ccccc2O)cc1OCC12CC(C(=O)NCCOc3cccc(OCCNc4cccc5c4C(=O)N(C4CCC(=O)NC4=O)C5=O)c3)(C1)C2` (stereo not drawn) [Compound 83, 3-(((3-amino-6-(2-hydroxyphenyl)pyridazin-4-yl)oxy)methyl)-N-(2-(3-(2-((2-(2,6-dioxopiperidin-3-yl)-1,3-dioxoisoindolin-4-yl)amino)ethoxy)phenoxy)ethyl)bicyclo[1.1.1]pentane-1-carboxamide], in assay [1], the Dmax is less than 50%. Further, the “BRM HiBit Degradation Maximum (%)” value on HiBit-BRM fusion protein is recorded as “C (“C” indicates maximum degradation < 50%)”.

With `Nc1nnc(-c2ccccc2O)cc1OCC12CC(CNC(=O)CCCCCCCOc3cccc4c3C(=O)N(C3CCC(=O)NC3=O)C4=O)(C1)C2` (stereo not drawn) [Compound 5, N-[[3-([[3-amino-6-(2-hydroxyphenyl)pyridazin-4-yl]oxy]methyl)bicyclo[1.1.1]pentan-1-yl]methyl]-8-[[2-(2,6-dioxopiperidin-3-yl)-1,3-dioxoisoindol-4-yl]oxy]octanamide], the Dmax in assay [1] is less than 50%. The “BRM HiBit Degradation Maximum (%)” value on HiBit-BRM fusion protein was “C (“C” indicates maximum degradation < 50%)”.

Take `Nc1nnc(-c2ccccc2O)cc1OCC12CC(C(=O)NCCNc3ccc4c(c3)C(=O)N(C3CCC(=O)NC3=O)C4=O)(C1)C2` (stereo not drawn) [Compound 56, 3-(((3-amino-6-(2-hydroxyphenyl)pyridazin-4-yl)oxy)methyl)-N-(2-((2-(2,6-dioxopiperidin-3-yl)-1,3-dioxoisoindolin-5-yl)amino)ethyl)bicyclo[1.1.1]pentane-1-carboxamide]: the Dmax in assay [1] was less than 50%. Also, on HiBit-BRM fusion protein, the “BRM HiBit Degradation Maximum (%)” value is given as “C (“C” indicates maximum degradation < 50%)”.

In the case of `Cc1ncsc1-c1ccc(CNC(=O)[C@@H]2C[C@@H](O)CN2C(=O)[C@@H](NC(=O)CCCCCCCCCCCCCCC(=O)NC23CC(CCOc4cc(-c5ccccc5O)nnc4N)(C2)C3)C(C)(C)C)cc1` [Compound 50, N1-(3-(2-((3-amino-6-(2-hydroxyphenyl)pyridazin-4-yl)oxy)ethyl)bicyclo[1.1.1]pentan-1-yl)-N16-((S)-1-((2S,4R)-4-hydroxy-2-((4-(4-methylthiazol-5-yl)benzyl)carbamoyl)pyrrolidin-1-yl)-3,3-dimethyl-1-oxobutan-2-yl)hexadecanediamide; formic acid], the Dmax in assay [1] was less than 50%. Also, on HiBit-BRM fusion protein, the “BRM HiBit Degradation Maximum (%)” value is given as “B (“B” indicates maximum degradation ≥ 50%)”.

For `Nc1nnc(-c2ccccc2O)cc1OCC12CC(C(=O)N3CCC(CN4CCN(c5ccc6c(c5)C(=O)N(C5CCC(=O)NC5=O)C6=O)CC4)CC3)(C1)C2` (stereo not drawn) [Compound 101, 5-(4-((1-(3-(((3-amino-6-(2-hydroxyphenyl)pyridazin-4-yl)oxy)methyl)bicyclo[1.1.1]pentane-1-carbonyl)piperidin-4-yl)methyl)piperazin-1-yl)-2-(2,6-dioxopiperidin-3-yl)isoindoline-1,3-dione], the Dmax in assay [1] was less than 50%. On HiBit-BRM fusion protein, the “BRM HiBit Degradation Maximum (%)” value is listed as “B (“B” indicates maximum degradation ≥ 50%)”.

For the origin of these results see patent US12552775B2, “Compounds and uses thereof” (Foghorn Therapeutics Inc., priority 2020, dated 2026).
